What was measured:
Dihydrofolate reductase = molecular target: T1, Dihydrofolate reductase (Homo sapiens, UniProt P00374); experiment: Not found
T1 sequence (P00374 whole entry): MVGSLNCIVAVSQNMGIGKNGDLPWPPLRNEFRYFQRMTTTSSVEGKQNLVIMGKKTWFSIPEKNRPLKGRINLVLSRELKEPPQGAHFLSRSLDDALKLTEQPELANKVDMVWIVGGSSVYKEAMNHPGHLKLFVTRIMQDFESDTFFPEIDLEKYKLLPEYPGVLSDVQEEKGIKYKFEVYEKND

[1] = molecular target: Bifunctional dihydrofolate reductase-thymidylate synthase (Leishmania major, UniProt P07382); experiment: Not found
Chain of Bifunctional dihydrofolate reductase-thymidylate synthase (P07382 whole entry): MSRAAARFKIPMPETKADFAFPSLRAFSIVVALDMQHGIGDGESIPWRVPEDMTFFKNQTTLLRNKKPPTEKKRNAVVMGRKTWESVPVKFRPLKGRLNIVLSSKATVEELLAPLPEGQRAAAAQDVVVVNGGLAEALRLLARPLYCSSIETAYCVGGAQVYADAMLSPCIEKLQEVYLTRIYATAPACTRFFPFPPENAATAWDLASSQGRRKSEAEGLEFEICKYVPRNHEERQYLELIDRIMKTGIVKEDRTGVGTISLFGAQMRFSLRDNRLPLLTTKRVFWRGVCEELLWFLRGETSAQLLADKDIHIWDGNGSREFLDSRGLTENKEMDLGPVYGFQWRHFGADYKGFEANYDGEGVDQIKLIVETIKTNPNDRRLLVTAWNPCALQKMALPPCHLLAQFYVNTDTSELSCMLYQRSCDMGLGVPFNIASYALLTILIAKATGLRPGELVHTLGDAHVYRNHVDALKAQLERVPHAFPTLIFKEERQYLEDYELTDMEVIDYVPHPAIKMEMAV

Q: Which results are given for `Nc1ncc(N2CCN(c3ccccc3-c3ccccc3)CC2)c(N)n1` [US11530198, Example 12]?
A: IC50 (Dihydrofolate reductase): 214 nM; IC50 [1]: 7.41 nM

— BindingDB's records for patent US11530198 (Vyera Pharmaceuticals, 2022)
